Reference: a melting point compilation (Tetko et al.; mined from patent text by program, amines drawn as free bases though some values may be those of a salt)

Structure (SMILES) | melting point
N#CN=C(Nc1cccc(F)c1)NC(NC(=O)c1ccc(Cl)cc1)c1ccsc1 (configuration not stated) | 166 to 168 °C
CCCCOCCN(CCCCCSc1nc(-c2ccccc2)c(-c2ccccc2)[nH]1)C(=O)Nc1ccc(F)cc1F | 69 to 71 °C
CCOC(=O)c1cn2c3c(c(-c4cc(C)nc(C)c4)c(F)cc3c1=O)OC[C@@H]2C | 267 to 273 °C
Cc1c(O)ccc(C=O)c1O | 150 °C
Cc1cc(C)c(S(=O)(=O)NC(CNc2ccccc2)C(F)(F)F)c(C)c1 (configuration not stated) | 82 to 86 °C
CC1(C)CC(=O)c2c(C3CC3)sc(C#N)c2C1 | 80 to 83 °C
CC(C)(C)C1(C)C(=O)N=C2c3ccccc3C(=O)N21 (configuration not stated) | 136 to 138 °C
CSc1ncc(S(=O)(=O)NC(C)(C)C)c(Nc2cccc(C)c2)n1 | 178 °C
NC(=O)N(O)CCNC(=O)c1ccc(Cl)cc1 | 172 to 173 °C
COc1ccccc1N1CCN(c2nc3cccccc-3c2C#N)CC1 | 141 to 143 °C
NCc1cccc(Nc2n[nH]c3ncnc(Nc4cccc(Cl)c4)c23)c1 | 212 to 214 °C
O=S1(=O)c2cccc3cccc(c23)N1CCCN1CCN(c2ccc(O)cc2)CC1 | 185 °C
Nc1c(F)cc(F)c(-n2cc(C(=O)O)c(=O)c3cc(F)c(N4CC[C@H](N)C4)nc32)c1F | 273 to 277 °C
Nc1cn(-c2cncnc2)nc1Cl | 146 to 148 °C
CCOC(=O)C(NC(=O)CO)C(=O)OCC | 74 to 74.5 °C
CC(=O)Oc1cnc(C(C)(C)C)nc1O | 164 °C
COc1ccc(C(=O)Nc2ccccc2)cc1NS(=O)(=O)c1ccc(C(F)(F)F)cc1 | 197 to 198 °C
COCc1ncc(C(=O)OC)n1C | 74 to 77 °C
O=C1O[C@@H](CO)CN1c1ccc(-n2ccnn2)c(F)c1 | 179 to 180 °C
NS(=O)(=O)c1ccc(-n2nc(CNC(=O)Nc3cccc(C(F)(F)F)c3)cc2-c2ccccc2)cc1 | 185 to 190 °C
CSC(=NC(=O)OC(C)(C)C)NC(=O)OC(C)(C)C | 123 to 124 °C
Cc1cc([N+](=O)[O-])ccc1Oc1ccc(C(C)(C)c2cccc(C(C)(C)c3ccc(Oc4ccc([N+](=O)[O-])cc4C)cc3)c2)cc1 | 116 to 118 °C
Cc1nc2ncnn2c(Cl)c1C1CCCC1 | 87 °C

Structure (SMILES) | melting point
CNC(=O)c1cccc(NC(=O)Cc2cccc(O)c2)c1 | 163 °C
Cc1ccc(S(=O)(=O)CC(=O)C(C)(C)C)cc1 | 119 to 122 °C
O=C(NCC12CC3CC(CC(C3)C1)C2)c1cc([N+](=O)[O-])ccc1Cl | 178 °C
Fc1cccc(F)c1-c1nc2c(s1)NCCCC2 | 143 to 144 °C
N#CCc1cc(F)cc(Cc2nc3c(F)c(F)cc(F)c3s2)c1 | 91 to 94 °C
CNCC1Cc2cc(C(F)(F)F)cc(-c3cc(F)ccc3F)c2O1 (configuration not stated) | 138 to 140 °C
CCC(C)NC(=O)n1c(=O)nc(N2CCOCC2)n1C (configuration not stated) | 147 °C
CCCCCC#CCC#CCC#CCC#CCO | 54 to 56 °C
Nc1nc(Cl)cnc1-c1cc(Cl)cc(Cl)c1Cl | 211 to 214 °C
Cc1ccc(N2C(=O)C(O)=C(C(=O)c3ccc(C(C)C)cc3)C2c2ccc(Cn3ncnn3)cc2)nn1 (configuration not stated) | 271 °C
COC(=O)C1CC(O)CN1C(=O)c1ccc2c(c1)OCCO2 (configuration not stated) | 185 °C
N#CC(C(=O)Nc1ccccc1)C(=O)c1nn(-c2ccccc2)c2c1COc1c(CN3CCOCC3)cc(F)cc1-2 (configuration not stated) | 249 to 253 °C
Nc1nc(N)nc(-c2ccc(NS(=O)(=O)c3cc(Cl)ccc3Cl)cc2)n1 | 230 to 233 °C
N#Cc1c(C(=Nc2ccccc2)c2ccccc2)n(O)c2ccccc12 | 188 to 190 °C
CNc1ccc2c(c1)N1CCCN=C1S2 | 184 °C
N#CCCN1CCOC(c2ccccc2)(c2ccccc2)CC1 | 106 to 107 °C
CN1C(=O)CC[C@]2(C)c3ccc(C=Cc4ccc5ccccc5n4)cc3CC[C@@H]12 | 233 to 236 °C
O=C(c1ccccc1F)c1cc(Cl)ccc1C#CCN1C(=O)c2ccccc2C1=O | 158 to 161 °C
Nc1nc(N)nc(C2CCN(Cc3ccccc3)CC2)n1 | > 260 °C
Cc1c(C(=O)Nc2ccc(OCCN3CCOCC3)c(C#N)c2)cnn1-c1ccc(C(F)(F)F)cc1 | 191 to 193 °C
O=S(=O)(c1c[nH]cc1-c1ccc(Cl)cc1)C(F)(F)F | 138 to 141 °C
O=C1NCC2(CCNCC2)O1 | 95 to 96 °C

The next lines start with the values.

melting point | Structure (SMILES)
137 to 139 °C | Cn1nc(NC(=O)Nc2ccccc2)nc1NCCCOc1cccc(CN2CCCCC2)c1
141 to 143 °C | Nc1ccc(OCC2CN(c3ccccn3)C(=O)O2)cc1 (configuration not stated)
160 to 161 °C | COc1ccc2c(c1)N=C(NCc1cccnc1)c1ccccc1N2
97 to 98 °C | Oc1cc2ccsc2c(Cl)c1Cl
112 °C | CC(C)Cc1cc(C(=O)NCCc2ccncc2)ccc1OCc1ccc(F)cc1
218 to 220 °C | COc1ccc2c(CCCC(=O)O)nnc(-c3nccs3)c2c1
211 to 212 °C | CC(C)S(=O)(=O)n1c(N)nc2ccc(C(=CC(N)=O)c3ccccc3)cc21
85 to 88 °C | CCC(CC)Nc1cc(C)nc(Oc2c(C)cc(C)cc2C)c1C(N)=O
224 to 225 °C | O=c1nc(-c2cccc(Cl)n2)sc2ccccc12
106 to 109 °C | O=C1CCc2ccc(OCCCCBr)cc2N1
120 to 122 °C | Cc1oc(-c2ccccc2)nc1CNS(=O)(=O)c1ccc(CC2SC(=O)NC2=O)cc1 (configuration not stated)
< 50 °C | Clc1cc2ccccc2cn1
120 to 121 °C | O=C(N[C@H]1C(=O)N[C@@H]1CCO)OCc1ccccc1
92 to 92.5 °C | COCCOc1ccc(CCCC2OCCO2)c(Oc2ncc(C(F)(F)F)cc2Cl)c1
150 °C | C=CCSc1cc(C(=O)O)cc(N)c1-c1ccccc1
185 to 192 °C | COCCNc1ccc2c(c1)OC(c1ccccc1)C(c1ccc3c(c1)NC(=O)CO3)=C2 (configuration not stated)
153 to 155 °C | CC(C)(Cc1ccccc1)OC(=O)Nc1ccc(-c2ncn(-c3ccc(OC(F)(F)F)cc3)n2)cc1
148 to 149 °C | CCOC(=O)CC(=O)CC(O)/C=C/c1c(-c2ccccc2)c2ccccc2c(=O)n1C (configuration not stated)
226 to 228 °C | CCCCNc1cc(C=NO)cc(S(N)(=O)=O)c1Oc1ccccc1
155 to 158 °C | COc1cc(Oc2cccc3c2NC(=O)C3SC)cc(OC)c1OC (configuration not stated)
62 to 65 °C | C=CCCc1sc(-c2nccs2)c2c1C(=O)CC(C)(C)C2
248 to 252 °C | COc1ccc(-c2cnc3cc4cnn(CC#N)c4cc3n2)cc1F
198 to 200 °C | Oc1ccc2cc(-c3nc(-c4ccccc4)sc3Br)ccc2c1Br
236 °C | COC(=O)c1ccc2c(c1)S(=O)(=O)c1ccccc1NC2
226 to 227 °C | COc1cc(-c2cnc3[nH]cc(C(=O)Cc4ccccc4)c3n2)cc(OC)c1OC
203 to 204 °C | CCCOc1ccccc1-c1nc2nc(-c3ccccc3)ncc2c(=O)[nH]1
158 to 162 °C | CC(=CC(=O)Nc1ccccc1OCCCC(=O)O)c1ccc2c(ccn2C(c2ccccc2)c2ccccc2)c1
